Measured values from patent US4565774A, “Method for the formation of dye image” (priority 1981, dated 1986).
Read-outs that look alike come from different tables or passages of the source.

Assay: acid dissociation constant (Ka) of the added compound, measured at a normal temperature
Type: physicochemical
Experimental: The acid dissociation constant value is what was measured at a normal temperature, and is described in, e.g., the annex vol. 2 to the "Dai Yuki-Kagaku (Complete Organic Chemistry)" (published by Asakura Publishing Co., Ltd.), "The Theory of Photographic Process" written by T. H. James, 4th ed. (Published by McMillan), and the like. For the measurement of the acid dissociation constant there are several methods, and reference may be made to, e.g., the "Jikken Kagaku Koza (Course of Experimental Chemistry)" vol. 11, second series, (published by Maruzen Co., Ltd.) pp. 524 to 552, and the like.
To the above-prepared developer was added each of the compounds as given in Table 1 to thereby prepare color developers [A] to [M].

[1] = normal temperature, read-out: acid dissociation constant (Ka) (converted)

Row | SMILES | pKa [1] | pKa
1 | c1c[nH]cn1 [Comparative compound (1), Imidazole] | 7.2 | –
2 | Sc1nnnn1-c1ccccc1 [Comparative compound (3), 1-phenyl-5-mercaptotetrazole] | 3.34 | –
3 | c1ccc2[nH]cnc2c1 [Exemplified compound S-1] | 11.7 | –

Next, values leading:

Row | pKa [1] | pKa | SMILES
4 | 6.49 | – | Cc1cc(O)n2ncnc2n1 [Comparative compound (2), 4-hydroxy-6-methyl-1,3,3a,7-tetrazaindene]
5 | 10.3 | – | CCCc1ccc2nc[nH]c2c1 [Exemplified compound S-5]
6 | – | 9.8 | Nc1ncnc2nc[nH]c12 [Exemplified compound S-11]
